Assay results from PMC9788418, “Design, Synthesis and Biological Evaluation of Syn and Anti-like Double Warhead Quinolinones Bearing Dihydroxy Naphthalene Moiety as Epidermal Growth Factor Receptor Inhibitors with Potential Apoptotic Antiproliferative Action” (Molecules, 2022).
Values joined by “and” are separate entries in the source; they are usually repeats but may differ in a detail not shown here. Equal values may be shown once.

Columns and labels:
[1] = test system: A-549 (epithelial cancer cell line); test: Antiproliferative assay; format: cell-based, human; details: Homo sapiens, A549; read-out: Antiproliferative Activity IC50 ± SEM, A-549
Procedure: (§1) 4.2.1.2. Assay for antiproliferative effect
(§2) To explore the antiproliferative potential of compounds MTT assay was performed according to previously reported procedure using different cell lines to explore the antiproliferative potential of compounds propidium iodide fluorescence assay was performed using different cell lines. To calculate the total nuclear DNA, a fluorescent dye (propidium iodide, PI) is used which can attach to the DNA, thus offering a quick and precise technique. PI cannot pass through the cell membrane and its signal intensity can be considered as directly proportional to quantity of cellular DNA. Cells whose cell membranes are damaged or have changed permeability are counted as dead ones. The assay was performed by seeding the cells of different cell lines at a density of 3000-7500 cells/well (in 200µl […]
(§3) atmospheric conditions. The medium was removed; the compounds were added to the plates at 10 µM concentrations (in 0.1% DMSO) in triplicates, followed by incubation for 48 h. DMSO (0.1%) was used as control. After incubation, medium was removed followed by the addition of PI (25 µl, 50µg/mL in water/medium) to each well of the plates. At -80 °C, the plates were allowed to freeze for 24 h, followed by thawing at 25 °C. A fluorometer (Polar-Star BMG Tech) was used to record the readings at excitation and emission wavelengths of 530 and 620 nm for each well. The percentage cytotoxicity of compounds was calculated using the following formula:
(§4) Where ATC= Absorbance of treated cells and AC= Absorbance of control. […]
(§5) positive control in the assay.

[2] = test system: HT-29 (colon cancer cell line); test: Antiproliferative assay; format: cell-based, human; details: Homo sapiens, read-out: Antiproliferative Activity IC50 ± SEM, HT-29
Procedure: as §1, §2, §3, §4, §5

[3] = test system: MCF-7 (breast cancer cell line); test: Antiproliferative assay; format: cell-based, human; details: Homo sapiens, MCF7; read-out: Antiproliferative Activity IC50 ± SEM, MCF-7
Procedure: as §1, §2, §3, §4, §5

Cytochrome C = Cytochrome C assay; format: cell-based, human; details: for Cytochrome C Conc: A-549; for Cytochrome C Fold Change: A-549, vs control
Procedure: The concentration of Cytochrome c in a cell is crucial for activating caspases and starting the intrinsic apoptosis process. […]
plate cover and incubate at room temperature, on a microplate shaker at 100 rpm if available, for 1 hour. Remove plate cover and empty the wells. Wash microwell strips 3 times as described in step 2.
Proceed to the next step. Pipette 100 μl of mixed TMB Substrate Solution to all wells, including the […]
available on a rotator set at 100 rpm. Avoid direct exposure to intense light. The point, at which the substrate reaction is stopped, is often determined by the ELISA reader. Many ELISA readers record absorbance only up to 2.0 O.D. Therefore, the color development within individual microwells must be watched by the person running the assay and the substrate reaction stopped before positive wells are no longer properly detectable. Stop the enzyme reaction by quickly pipetting 100 μL of Stop Solution into each well, including the blank wells. It is important that the Stop Solution is spread quickly and uniformly throughout the microwells to completely inactivate the enzyme. Results must be read immediately after the Stop Solution is added or within one hour if the microwell strips are stored at 2 - 8°C in the dark. Read absorbance of each microwell on a spectrophotometer using 450 nm as the primary wave length.
4.2.6. Cytochrome C assay […]
cytochrome C, and lysed with Cell Extraction Buffer. This lysate was diluted in Standard Diluent Buffer over the range of the assay and measured for cytochrome C content. (Cells are Plated in cells/well in a volume of 100µl complete growth medium + 100 µl of the tested compound + 50 µl of 1X biotin conjugated antibody+ 100 µl of 1X streptavidin-HRP+ 100 µL TMB substrate soln of per well in a 96-well plate for 24 hours before assay).
4.3. Statistical analysis
Computerized Prism 5 program was used to statistically analyzed data using one-way ANOVA test followed by Tukey’s as post ANOVA for multiple comparison at P ≤.05. Data were presented as […]

caspase-3 = test: Caspase-3 activation assay; details: for Caspase-3 Conc: A-549; for Caspase-3 Fold Change: A-549, vs control untreated cells
Procedure: record autophosphorylation level, EGFR kinase assay was carried out based on DELFIA/Time-
Resolved Fluorometry. The compounds were first dissolved in DMSO absolute, after dilution to
Each compound (10 µL) was incubated
with recombinant enzyme (10 µL, 5 ng for EGFR, 1:80 dilution in 100 mM HEPES) for 10 min at
25 °C, after the addition of 5X buffer (10 µL, containing 2 mM MnCl2, 100 µM Na3VO4, 20 mM HEPES and 1 mM DTT) and ATP-MgCl2 (20 µL, containing 0.1 mM ATP and 50 mM MgCl2) and
incubation for 1h. The negative and positive controls were included in each plate by the incubation
of enzyme either with or without ATP-MgCl2. The liquid was removed after incubation and the plates
were washed thrice using wash buffer. Europium-tagged antiphosphotyrosine antibody (75 µL, 400
ng) was added to each well followed by incubation of 1h and then washing of the plates using buffer.
The enhancement solution was added to each well and the signal was recorded at excitation and
The autophosphorylation percentage inhibition by compounds was calculated using the following equation:

O=c1cc(-n2cc(COc3cccc4cccc(OCc5cn(-c6cc(=O)[nH]c7ccccc67)nn5)c34)nn2)c2ccccc2[nH]1 [Compound 4a, 4,4′-(((naphthalene-1,8-diylbis(oxy))bis(methylene))bis(1H-1,2,3-triazole-4,1-diyl))-bis-(quinolin-2(1H)-one)]
IC50 [1]: 31 ± 3 nM
IC50 [2]: 36 ± 3 nM
IC50 [3]: 33 ± 3 nM
Cytochrome C Conc (Cytochrome C): 0.80 ng/mL
Cytochrome C Fold Change (Cytochrome C): 16
melting point: > 360 °C
Caspase-3 Conc (caspase-3): 587.50 ± 4.50 pg/mL
Caspase-3 Fold Change (caspase-3): 9 and 8.95

Cc1ccc2[nH]c(=O)cc(-n3cc(COc4cccc5cccc(OCc6cn(-c7cc(=O)[nH]c8ccc(C)cc78)nn6)c45)nn3)c2c1 [Compound 4b, 4,4′-(((naphthalene-1,8-diylbis(oxy))bis(methylene))bis(1H-1,2,3-triazole-4,1-diyl))-bis(6-methylquinolin-2(1H)-one)]
IC50 [1]: 41 ± 4 nM
IC50 [2]: 48 ± 4 nM
IC50 [3]: 43 ± 4 nM
Cytochrome C Conc (Cytochrome C): 0.70 ng/mL
Cytochrome C Fold Change (Cytochrome C): 14
Caspase-3 Conc (caspase-3): 535.50 ± 4.50 pg/mL
Caspase-3 Fold Change (caspase-3): 8 and 8.15
